Results published in ChEMBL document CHEMBL1201862, “PubChem BioAssay data set” (2004).
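Cultured in 96-well plates, cells were exposed to test compound for 48 hours across five concentrations. At the GI50, growth is halved.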 Activity calls are given as the source filed them. Rule as the data show it: active = GI50 up to about 1.1 µM and inactive = higher.

Columns and labels:
Test in all cases: inhibition of tumour cell growth, NCI panel, 48 h
SK-MEL-5 = test system: SK-MEL-5
NCI-H522 = test system: NCI-H522
NCI-H23 = test system: NCI-H23
HCT-15 = test system: HCT-15
UACC-62 = test system: UACC-62
UO-31 = test system: UO-31
IGROV-1 = test system: IGROV-1
HOP-92 = test system: HOP-92
LXFL 529 = test system: LXFL 529
HOP-18 = test system: HOP-18
NCI-H226 = test system: NCI-H226
ACHN = test system: ACHN
U-251 = test system: U-251
UACC-257 = test system: UACC-257
SW-620 = test system: SW-620
CAKI-1 = test system: CAKI-1
HCC 2998 = test system: HCC 2998
DMS-114 = test system: DMS-114
M14 = test system: M14
OVCAR-5 = test system: OVCAR-5
HL-60 = test system: HL-60
K562 = test system: K562
OVCAR-4 = test system: OVCAR-4
SF-268 = test system: SF-268
SNB-78 = test system: SNB-78
HT-29 = test system: HT-29
OVCAR-3 = test system: OVCAR-3
SNB-75 = test system: SNB-75
786-0 = test system: 786-0
SN12C = test system: SN12C
LOX IMVI = test system: LOX IMVI
COLO 205 = test system: COLO 205
RPMI-8226 = test system: RPMI-8226
SK-MEL-2 = test system: SK-MEL-2
SK-OV-3 = test system: SK-OV-3
DMS-273 = test system: DMS-273
EKVX = test system: EKVX
SF-295 = test system: SF-295
HCT-116 = test system: HCT-116
DLD-1 = test system: DLD-1
OVCAR-8 = test system: OVCAR-8
MOLT-4 = test system: MOLT-4
CCRF-CEM = test system: CCRF-CEM
SNB-19 = test system: SNB-19
M19-MEL = test system: M19-MEL
TK-10 = test system: TK-10
KM-20L2 = test system: KM-20L2
A498 = test system: A498
Malme-3M = test system: Malme-3M
NCI-H460 = test system: NCI-H460
KM12 = test system: KM12
A549 = test system: A549
HOP-62 = test system: HOP-62
SK-MEL-28 = test system: SK-MEL-28
SF-539 = test system: SF-539
RXF 393 = test system: RXF 393
XF498 = test system: XF498

`N=C(N)NS(=O)(=O)c1ccc(NCc2c3ccccc3[n+]([O-])c3ccccc23)cc1` was tested, and the GI50 (SK-MEL-5) was 14 µM (inactive), the GI50 (NCI-H522) was 29.9 µM (inactive) and the GI50 (NCI-H23) was 21.8 µM (inactive). For the same compound, the GI50 (HCT-15) was 18.4 µM, the GI50 (UACC-62) was 22.5 µM (inactive) and the GI50 (UO-31) was 15.2 µM (inactive). The GI50 (IGROV-1) was 19.8 µM (inactive), the GI50 (HOP-92) was 0.394 µM (active) and the GI50 (LXFL 529) was 17.1 µM (inactive). For the same compound, the GI50 (HOP-18) was 8.63 µM (inactive), the GI50 (NCI-H226) was 9.55 µM (inactive) and the GI50 (ACHN) was 17 µM (inactive). The GI50 (U-251) was 16.6 µM (inactive), the GI50 (UACC-257) was 74.6 µM (inactive) and the GI50 (SW-620) was 16.4 µM (inactive). The GI50 (CAKI-1) was 21.3 µM (inactive), the GI50 (HCC 2998) was 13.4 µM (inactive) and the GI50 (DMS-114) was 10.4 µM (inactive). For the same compound, the GI50 (M14) was 46.6 µM (inactive), the GI50 (OVCAR-5) was > 100 µM (inactive) and the GI50 (HL-60) was 6.08 µM (inactive). For the same compound, the GI50 (K562) was 25.7 µM (inactive), the GI50 (OVCAR-4) was 23.8 µM (inactive) and the GI50 (SF-268) was 11.8 µM (inactive). For the same compound, the GI50 (SNB-78) was 31.6 µM (inactive), the GI50 (HT-29) was 41.5 µM (inactive) and the GI50 (OVCAR-3) was 46.1 µM (inactive). For the same compound, the GI50 (SNB-75) was 13.5 µM (inactive), the GI50 (786-0) was 19.7 µM (inactive) and the GI50 (SN12C) was 15 µM (inactive). For the same compound, the GI50 (LOX IMVI) was 11.1 µM (inactive), the GI50 (COLO 205) was 68.5 µM (inactive) and the GI50 (RPMI-8226) was 12.4 µM (inactive). The GI50 (SK-MEL-2) was 40.2 µM (inactive), the GI50 (SK-OV-3) was > 100 µM (inactive) and the GI50 (DMS-273) was 9.35 µM (inactive). For the same compound, the GI50 (EKVX) was > 100 µM (inactive), the GI50 (SF-295) was 18.7 µM (inactive) and the GI50 (HCT-116) was 8.11 µM (inactive). The GI50 (DLD-1) was 28.2 µM (inactive), the GI50 (OVCAR-8) was 28.5 µM (inactive) and the GI50 (MOLT-4) was 1.94 µM (inactive). The GI50 (CCRF-CEM) was 5.64 µM (inactive), the GI50 (SNB-19) was 18.8 µM (inactive) and the GI50 (M19-MEL) was 22.9 µM (inactive). The GI50 (TK-10) was > 100 µM (inactive), the GI50 (KM-20L2) was 30.1 µM (inactive) and the GI50 (A498) was 13.6 µM (inactive). For the same compound, the GI50 (Malme-3M) was 20 µM (inactive), the GI50 (NCI-H460) was 3.43 µM (inactive) and the GI50 (KM12) was 30.4 µM (inactive). For the same compound, the GI50 (A549) was 17.6 µM (inactive), the GI50 (HOP-62) was 15.9 µM (inactive) and the GI50 (SK-MEL-28) was 20.4 µM (inactive).
For `Cc1cc2c(=O)c3ccc(Cl)cc3[nH]c2c(C(=O)O)c1C`, the GI50 (SK-MEL-5) was > 100 µM (inactive), the GI50 (NCI-H522) was 73.8 µM (inactive) and the GI50 (NCI-H23) was > 100 µM (inactive). The GI50 (HCT-15) was over 100 µM, the GI50 (UACC-62) was > 100 µM (inactive) and the GI50 (UO-31) was 46.1 µM (inactive). For the same compound, the GI50 (IGROV-1) was > 100 µM (inactive), the GI50 (LXFL 529) was > 100 µM (inactive) and the GI50 (HOP-18) was > 100 µM (inactive). For the same compound, the GI50 (NCI-H226) was > 100 µM (inactive), the GI50 (ACHN) was > 100 µM (inactive) and the GI50 (U-251) was > 100 µM (inactive). For the same compound, the GI50 (UACC-257) was > 100 µM (inactive), the GI50 (SW-620) was > 100 µM (inactive) and the GI50 (CAKI-1) was > 100 µM (inactive). The GI50 (HCC 2998) was > 100 µM (inactive), the GI50 (DMS-114) was > 100 µM (inactive) and the GI50 (M14) was > 100 µM (inactive). For the same compound, the GI50 (OVCAR-5) was > 100 µM (inactive), the GI50 (K562) was > 100 µM (inactive) and the GI50 (SF-539) was > 100 µM (inactive). For the same compound, the GI50 (OVCAR-4) was > 100 µM (inactive), the GI50 (SF-268) was > 100 µM (inactive) and the GI50 (SNB-78) was > 100 µM (inactive). The GI50 (HT-29) was > 100 µM (inactive), the GI50 (OVCAR-3) was > 100 µM (inactive) and the GI50 (SNB-75) was > 100 µM (inactive). For the same compound, the GI50 (786-0) was > 100 µM (inactive), the GI50 (RXF 393) was 47.5 µM (inactive) and the GI50 (SN12C) was > 100 µM (inactive). The GI50 (LOX IMVI) was > 100 µM (inactive), the GI50 (COLO 205) was > 100 µM (inactive) and the GI50 (RPMI-8226) was > 100 µM (inactive). The GI50 (SK-MEL-2) was > 100 µM (inactive), the GI50 (SK-OV-3) was > 100 µM (inactive) and the GI50 (EKVX) was > 100 µM (inactive). The GI50 (SF-295) was > 100 µM (inactive), the GI50 (HCT-116) was > 100 µM (inactive) and the GI50 (DLD-1) was > 100 µM (inactive). The GI50 (OVCAR-8) was > 100 µM (inactive), the GI50 (MOLT-4) was > 100 µM (inactive) and the GI50 (CCRF-CEM) was > 100 µM (inactive). For the same compound, the GI50 (SNB-19) was > 100 µM (inactive), the GI50 (M19-MEL) was > 100 µM (inactive) and the GI50 (TK-10) was > 100 µM (inactive). For the same compound, the GI50 (KM-20L2) was > 100 µM (inactive), the GI50 (Malme-3M) was > 100 µM (inactive) and the GI50 (NCI-H460) was > 100 µM (inactive). For the same compound, the GI50 (KM12) was 32.4 µM (inactive), the GI50 (A549) was > 100 µM (inactive) and the GI50 (HOP-62) was > 100 µM (inactive). For the same compound, the GI50 (SK-MEL-28) was > 100 µM (inactive) and the GI50 (XF498) was > 100 µM (inactive).
For `Cc1ccccc1NC(=O)C(=O)c1c(O)c2ccc(O)cc2oc1=O`, the GI50 (SK-MEL-5) was > 100 µM (inactive), the GI50 (NCI-H522) was > 100 µM (inactive) and the GI50 (NCI-H23) was > 100 µM (inactive). For the same compound, the GI50 (HCT-15) was over 100 µM, the GI50 (UACC-62) was > 100 µM (inactive) and the GI50 (UO-31) was > 100 µM (inactive). For the same compound, the GI50 (IGROV-1) was > 100 µM (inactive), the GI50 (HOP-92) was > 100 µM (inactive) and the GI50 (LXFL 529) was > 100 µM (inactive). The GI50 (HOP-18) was > 100 µM (inactive), the GI50 (NCI-H226) was > 100 µM (inactive) and the GI50 (ACHN) was > 100 µM (inactive). The GI50 (U-251) was > 100 µM (inactive), the GI50 (UACC-257) was > 100 µM (inactive) and the GI50 (SW-620) was > 100 µM (inactive). The GI50 (CAKI-1) was > 100 µM (inactive), the GI50 (DMS-114) was > 100 µM (inactive) and the GI50 (M14) was > 100 µM (inactive). The GI50 (HL-60) was > 100 µM (inactive), the GI50 (K562) was > 100 µM (inactive) and the GI50 (OVCAR-4) was > 100 µM (inactive). For the same compound, the GI50 (SF-268) was > 100 µM (inactive), the GI50 (HT-29) was > 100 µM (inactive) and the GI50 (OVCAR-3) was > 100 µM (inactive). The GI50 (SNB-75) was > 100 µM (inactive), the GI50 (786-0) was > 100 µM (inactive) and the GI50 (RXF 393) was > 100 µM (inactive). The GI50 (SN12C) was > 100 µM (inactive), the GI50 (LOX IMVI) was > 100 µM (inactive) and the GI50 (COLO 205) was > 100 µM (inactive). The GI50 (RPMI-8226) was > 100 µM (inactive), the GI50 (SK-MEL-2) was > 100 µM (inactive) and the GI50 (SK-OV-3) was > 100 µM (inactive). For the same compound, the GI50 (DMS-273) was > 100 µM (inactive), the GI50 (HCT-116) was > 100 µM (inactive) and the GI50 (DLD-1) was > 100 µM (inactive). For the same compound, the GI50 (OVCAR-8) was > 100 µM (inactive), the GI50 (MOLT-4) was > 100 µM (inactive) and the GI50 (CCRF-CEM) was > 100 µM (inactive). The GI50 (SNB-19) was > 100 µM (inactive), the GI50 (M19-MEL) was > 100 µM (inactive) and the GI50 (TK-10) was > 100 µM (inactive). The GI50 (KM-20L2) was > 100 µM (inactive), the GI50 (A498) was > 100 µM (inactive) and the GI50 (Malme-3M) was > 100 µM (inactive). For the same compound, the GI50 (NCI-H460) was > 100 µM (inactive), the GI50 (KM12) was > 100 µM (inactive) and the GI50 (A549) was > 100 µM (inactive). For the same compound, the GI50 (HOP-62) was > 100 µM (inactive), the GI50 (SK-MEL-28) was > 100 µM (inactive) and the GI50 (XF498) was > 100 µM (inactive).
